Experimental data reported in patent US12422443B2, “Amino-substituted chromenoquinoline-based fluorescent marker, and preparation and use thereof” (SOOCHOW UNIVERSITY, priority 2021, dated 2025).

Assays:
[1] = Photostability under iodine-tungsten lamp irradiation (residual absorptivity); type: physicochemical; details: 10 μM in acetonitrile, 500 W iodine-tungsten lamp at 25 cm, 6 hrs irradiation
Experimental: The photostability of the above prepared dyes 1a-1d was tested (at a concentration of 10 μM). Dyes 1a-1d and the reference substance Cy7 of corresponding weights were weighed, and respectively dissolved in acetonitrile (at a concentration of 10 μM). All samples were irradiated with a Philips iodine-tungsten lamp (500 W), where the distance between the lamp and the sample was set to 25 cm. An 8 cm-thick sodium nitrite (60 g per liter) cold trap was placed between the lamp and the sample, to eliminate the heat and short-wavelength light. The irradiation was continued for 6 hrs, during which UV and fluorescence were performed every half hour. After six hours, the light stability was measured by residual absorptivity calculated based on the change in the absorption intensity at various times before and after the irradiation. […] It can be seen that dyes 1a-1d have higher photostability compared to cyanine dyes.

[2] = Ultraviolet absorption and fluorescence emission in dichloromethane; type: physicochemical; details: 10 μM in dichloromethane; for highest fluorescence intensity (emission wavelength): excitation 428 nm (1a), 407 nm (1b), 461 nm (1c), 430 nm (1d), slit 3 nm/3 nm (1d: 5 nm/3 nm)
Experimental: The ultraviolet absorption and fluorescence emission performances of the dyes 1a-1d prepared above (at a concentration of 10 μM) in dichloromethane were tested. The horizontal ordinate is the wavelength, and the vertical ordinate is the absorbance and fluorescence intensity, respectively.
(§1) The ultraviolet absorption and fluorescence emission spectra of the fluorescent marker 1a (at a concentration of 10 μM) in dichloromethane are shown in FIG. 3. The fluorescent marker 1a has the maximum absorption at 452 nm (FIG. 3 (a)); and the fluorescent marker 1a has the highest fluorescence intensity at 532 nm (FIG. 3 (e)), where the excitation wavelength is 428 nm, and the slit width is 3 nm/3 nm.
as §1, with “1b” for “1a”, “473” for “452”, “(b));” for “(a));”, “562” for “532”, “(f)),” for “(e)),”, “407” for “428”
as §1, with “1c” for “1a”, “375” for “452”, “(c));” for “(a));”, “546” for “532”, “(g)),” for “(e)),”, “461” for “428”
The ultraviolet absorption and fluorescence emission spectra of the fluorescent marker 1d (at a concentration of 10 μM) in dichloromethane are shown in FIG. 3. The fluorescent marker 1d has the maximum absorption at 429 nm (FIG. 3 (d)); and the fluorescent marker 1d has the highest fluorescence intensity at 495 nm (FIG. 3 (h)), where the excitation wavelength is 430 nm, and the slit width is 5 nm/3 nm.

[3] = system: lipid droplets in Hela cells; experiment: Lipid droplet labeling, colocalized confocal imaging with Nile Red in Hela cells; type: cell-based; details: 5 min; for lipid droplet labeling ability (in words): 1a and 1b 6 μM, 1c 5 μM, 1d 8 μM
Description: In the following examples, the cells are imaged by laser confocal microscopy, where excitation at 405 nm is employed in the green light channel, and the fluorescence signal in the range of 468-550 nm is collected; and excitation at 561 nm is employed in the red light channel, and the fluorescence signal in the range of 570-750 nm is collected.
To test the fluorescent labeling ability of the fluorescent marker 1a compared with a commercial lipid droplet marker, the fluorescent marker 1a was prepared into a stock solution in dimethyl sulfoxide, and then added to a conventional cell culture medium, to give a concentration of the fluorescent marker 1a in the cell culture medium of 6 μM. Subsequently, Nile Red (100 nM), a lipid droplet red marker, was added and co-incubated with Hela cells in an incubator at saturated humidity, 37° C., and 5% CO2 for 5 min (the same below); The cells were washed three times with a PBS buffer, and imaged by laser confocal microscopy, where excitation at 405 nm was employed in the green light channel, and the fluorescence signal in the range of 468-550 nm was collected; and excitation at 561 nm was employed in the red light channel, and the fluorescence signal in the range of 570-750 nm was collected. The results are shown in FIG. 5, in which (a) is the bright field, (b) is the cell image with the fluorescent marker 1a, (c) is the cell image with the lipid droplet Red marker, (d) is overlapped image of the green light channel and the red light channel, (e) is the fluorescence intensity of the ROI line in the overlapped image, and (f) is the colocalization assay, where the colocalization coefficient is 0.95.
To verify the labeling effect of the fluorescent marker 1b (6 μM) on lipid droplets in Hela cells, the same experimental method as that with the fluorescent marker 1a was used.
The experimental method with the fluorescent marker 1c (5 μM) was the same as that with the fluorescent marker 1a.
To verify whether Compound 1d can be used in fluorescence imaging of lipid droplets in Hela cells just as the probes 1a-1c do, a cell assay was carried out. The fluorescent marker 1d was prepared into a stock solution in dimethyl sulfoxide, and then added to a conventional cell culture medium, to give a concentration of the fluorescent marker 1d in the cell culture medium of 8 μM. The Hela cells were co-incubated in an incubator at saturated humidity, 37° C., 5% CO2 for 5 min. The cells were washed three times with a PBS buffer, and imaged by laser confocal microscopy, where excitation at 405 nm was employed in the green light channel, and the fluorescence signal in the range of 468-550 nm was collected. […] The results are shown in FIG. 5, in which(s) is the bright field, (t) is the cell image with the fluorescent marker 1d, (u) is the cell image with the lipid droplet Red marker, (v) is overlapped image of the green light channel and the red light channel, (w) is the fluorescence intensity of the ROI line in the overlapped image, and (x) is the colocalization assay, where the colocalization coefficient is 0.90.

[4] = system: mitochondria in Hela cells; experiment: Mitochondria labeling, colocalized confocal imaging with CMA Ros in Hela cells; type: cell-based
[5] = 6 μM marker with Nile Red (100 nM)

photostability (residual absorptivity) [1] [%] | maximum absorption [2] [nm] | highest fluorescence intensity (emission wavelength) [2] [nm] | SMILES | colocalization coefficient [3, 5] | lipid droplet labeling ability (in words) [3] | colocalization coefficient ([3]; 5 μM marker with Nile Red (100 nM)) | mitochondria labeling ability (in words) ([4]; 8 μM) | colocalization coefficient ([4]; 8 μM marker with CMA Ros (100 nM))
46 | 452 | 532 | CCN(CC)c1ccc2nc3c(cc2c1)c(=O)oc1ccccc13 [1a] | 0.95 | has lipid droplet labeling ability in Hela cells | – | – | –
43 | 473 | 562 | CCN(CC)c1ccc2nc3c(cc2c1)c(=O)oc1cc(N(CC)CC)ccc13 [1b] | 0.97 | good targeting ability to lipid droplets in Hela cells | – | – | –
76 | 375 | 546 | CCN(CC)c1ccc2c(c1)oc(=O)c1cc3ccc4ccccc4c3nc12 [1c] | – | good targeting ability to lipid droplets in Hela cells | 0.85 | – | –
71 | 429 | 495 | CCN(CC)c1ccc2c(c1)oc(=O)c1cc3c(ccc4nc5c(cc43)c(=O)oc3cc(N(CC)CC)ccc35)nc12 [1d] | – | does not stain the lipid droplets in the cells | – | has the ability to label mitochondria | 0.90
